# Source: patent US20110065788A1, “AQUEOUS FORMULATIONS OF (2-HYDROXYMETHYL-INDANYL-4-OXY)-PHENYL-4,4,4-TRIFLUOROBUTANE-1-SULFONATE” (BAYER SCHERING PHARMA AKTIENGESELLSCHAFT, priority 2002, published 2011)
# Assay: solubility in water
# Format: physicochemical
# Conditions: 25° C.
smiles,measurement,value
"O=S(=O)(CCCC(F)(F)F)Oc1cccc(Oc2cccc3c2C[C@H](CO)C3)c1 [Compound (I), (−)-(R)-3-(2-Hydroxymethylindanyl-4-oxy)phenyl 4,4,4-trifluorobutane-1-sulfonate]",solubility,2 µg/mL
